{"source": "patent US20130261178A1", "about": "“PHENOXYPROPANOL DERIVATIVES AND THEIR USE IN TREATING CARDIAC AND CARDIOVASCULAR DISEASES” (priority 2010, published 2013)", "key": {"[1]": {"target": "beta1-adrenoceptor (Homo sapiens, UniProt P08588)", "sequence (P08588 whole entry)": "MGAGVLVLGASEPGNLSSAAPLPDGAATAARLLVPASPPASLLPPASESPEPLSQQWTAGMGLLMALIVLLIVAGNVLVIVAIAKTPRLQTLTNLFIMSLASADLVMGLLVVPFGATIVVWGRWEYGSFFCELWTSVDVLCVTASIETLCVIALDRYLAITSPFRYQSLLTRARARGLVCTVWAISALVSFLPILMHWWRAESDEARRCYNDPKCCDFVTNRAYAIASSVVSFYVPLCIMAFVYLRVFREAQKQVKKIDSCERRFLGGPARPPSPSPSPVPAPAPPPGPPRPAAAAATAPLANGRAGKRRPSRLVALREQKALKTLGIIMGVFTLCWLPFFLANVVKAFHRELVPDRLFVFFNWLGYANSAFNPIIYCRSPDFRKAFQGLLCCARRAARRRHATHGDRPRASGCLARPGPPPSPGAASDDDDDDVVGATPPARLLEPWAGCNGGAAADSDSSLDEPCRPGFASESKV", "assay": "3H-CGP12177 whole-cell binding, CHO cells expressing human beta1-adrenoceptor", "design": "expressed in transfected cells; host or cells: CHO cells", "details": "3H-CGP 12177 whole cell binding, mean ± s.e.mean; for Kd: log KD, read-out: Beta 1 Log KD (converted)", "text": "(§1) The selectivity of a ligand is given by the ratio of beta-1 to beta-2 KD."}, "[2]": {"target": "T1, human beta3-adrenoceptor (Homo sapiens, UniProt P13945)", "T1 construct": "expressed in transfected cells; host or cells: CHO cells", "T1 sequence (P13945 whole entry)": "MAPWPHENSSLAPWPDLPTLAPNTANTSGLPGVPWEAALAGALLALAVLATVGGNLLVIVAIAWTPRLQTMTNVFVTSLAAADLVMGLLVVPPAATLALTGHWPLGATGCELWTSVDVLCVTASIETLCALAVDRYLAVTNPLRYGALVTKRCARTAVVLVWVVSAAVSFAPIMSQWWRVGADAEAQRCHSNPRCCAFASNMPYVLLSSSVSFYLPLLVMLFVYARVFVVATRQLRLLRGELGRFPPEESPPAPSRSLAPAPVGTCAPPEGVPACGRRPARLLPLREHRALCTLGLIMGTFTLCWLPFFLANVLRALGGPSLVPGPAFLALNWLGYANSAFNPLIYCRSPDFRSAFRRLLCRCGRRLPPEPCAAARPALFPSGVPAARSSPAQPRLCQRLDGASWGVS", "assay": "3H-CGP12177 whole-cell binding, CHO cells expressing human beta3-adrenoceptor", "details": "3H-CGP 12177 whole cell binding, mean ± s.e.mean; for Kd: log KD, read-out: Beta 3 Log KD (converted)"}, "[3]": {"target": "T2, human beta2-adrenoceptor (Homo sapiens, UniProt P07550)", "T2 construct": "expressed in transfected cells; host or cells: CHO cells", "T2 sequence (P07550 whole entry)": "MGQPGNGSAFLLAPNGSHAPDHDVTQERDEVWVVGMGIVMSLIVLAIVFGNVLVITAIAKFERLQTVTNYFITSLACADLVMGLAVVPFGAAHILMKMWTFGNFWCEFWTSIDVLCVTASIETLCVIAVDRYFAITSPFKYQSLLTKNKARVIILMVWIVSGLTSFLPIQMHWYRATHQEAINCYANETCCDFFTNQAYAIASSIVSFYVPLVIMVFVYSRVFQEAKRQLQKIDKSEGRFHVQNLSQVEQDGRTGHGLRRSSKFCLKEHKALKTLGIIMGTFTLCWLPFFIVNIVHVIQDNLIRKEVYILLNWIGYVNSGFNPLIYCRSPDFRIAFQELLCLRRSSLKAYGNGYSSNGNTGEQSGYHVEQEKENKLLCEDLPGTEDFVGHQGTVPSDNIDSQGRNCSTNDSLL", "assay": "3H-CGP12177 whole-cell binding, CHO cells expressing human beta2-adrenoceptor", "details": "3H-CGP 12177 whole cell binding, mean ± s.e.mean; for Kd: log KD, read-out: Beta 2 Log KD (converted)", "text": "as §1"}}}
{"compound": "O=C(NCCNCC(O)COc1ccc(OCCOCC2CC2)cc1)Nc1ccc(OCc2ccccc2)cc1", "note": "(stereo not drawn) [45a]", "values": [{"measurement": "Kd", "setting": "[1]", "value": 70.8, "unit": "nM"}, {"measurement": "Kd", "setting": "[2]", "value": 1780, "unit": "nM"}]}
{"compound": "O=C(NCCNCC(O)COc1ccc(OCCOCC2CC2)cc1)Nc1cccc(Cl)c1", "note": "(stereo not drawn) [46e, 1-(2-(3-(4-(2-(Cyclopropylmethoxy)ethoxy)phenoxy)-2-hydroxypropylamino)ethyl)-3-(3-chlorophenyl)urea hydroformate]", "values": [{"measurement": "Kd", "setting": "[1]", "value": 29.5, "unit": "nM"}, {"measurement": "Kd", "setting": "[3]", "value": 5750, "unit": "nM"}, {"measurement": "Kd", "setting": "[2]", "value": 8510, "unit": "nM"}]}
{"compound": "CCOCCOc1ccc(OCC(O)CNCCNC(=O)Nc2cccc(Cl)c2)cc1", "note": "(stereo not drawn) [46f, 1-(2-(3-(4-(2-Ethoxyethoxy)phenoxy)-2-hydroxypropylamino)ethyl)-3-(3-chlorophenyl)urea hydroformate]", "values": [{"measurement": "Kd", "setting": "[1]", "value": 31.6, "unit": "nM"}, {"measurement": "Kd", "setting": "[3]", "value": 6310, "unit": "nM"}, {"measurement": "Kd", "setting": "[2]", "value": 7240, "unit": "nM"}]}
{"compound": "CCOCCOc1ccc(OCC(O)CNCCNC(=O)Cc2ccccc2O)cc1", "note": "(stereo not drawn) [46g, N-(2-(3-(4-(2-ethoxyethoxy)phenoxy)-2-hydroxypropylamino)ethyl)-2-(2-hydroxyphenyl)acetamide]", "values": [{"measurement": "Kd", "setting": "[1]", "value": 77.6, "unit": "nM"}, {"measurement": "Kd", "setting": "[3]", "value": 537, "unit": "nM"}, {"measurement": "Kd", "setting": "[2]", "value": 10000, "unit": "nM"}]}
{"compound": "CCOCCOc1ccc(OCC(O)CNCCNC(=O)Cc2cccc(O)c2)cc1", "note": "(stereo not drawn) [46h, N-(2-(3-(4-(2-ethoxyethoxy)phenoxy)-2-hydroxypropylamino)ethyl)-2-(3-hydroxyphenyl)acetamide]", "values": [{"measurement": "Kd", "setting": "[1]", "value": 44.7, "unit": "nM"}, {"measurement": "Kd", "setting": "[3]", "value": 257, "unit": "nM"}, {"measurement": "Kd", "setting": "[2]", "value": 9330, "unit": "nM"}]}
{"compound": "O=C(Cc1ccc(O)cc1)NCCNCC(O)COc1ccc(OCCOCC2CC2)cc1", "note": "(stereo not drawn) [46i, N-(2-(3-(4-(2-(cyclopropylmethoxy)ethoxy)phenoxy)-2 hydroxypropylamino)ethyl)-2-(4-hydroxyphenyl)acetamide]", "values": [{"measurement": "Kd", "setting": "[1]", "value": 17, "unit": "nM"}, {"measurement": "Kd", "setting": "[3]", "value": 933, "unit": "nM"}, {"measurement": "Kd", "setting": "[2]", "value": 3890, "unit": "nM"}]}
{"compound": "O=C(NCCNCC(O)COc1ccc(OCCOC2CCCC2)cc1)Nc1ccccc1O", "note": "(stereo not drawn) [47t, 1-(2-(3-(4-(2-(Cyclopentyloxy)ethoxy)phenoxy)-2-hydroxypropylamino)ethyl)-3-(2-hydroxyphenyl)urea]", "values": [{"measurement": "Beta 1 Log KD", "setting": "[1]", "value": "−6.99 ± 0.08"}, {"measurement": "Kd", "setting": "[2]", "value": 3980, "unit": "nM"}]}
{"compound": "O=C(Cc1ccc(F)cc1)NCCNCC(O)COc1ccc(OCCOC2CCCC2)cc1", "note": "(stereo not drawn) [62i]", "values": [{"measurement": "Kd", "setting": "[1]", "value": 7.76, "unit": "nM"}, {"measurement": "Kd", "setting": "[3]", "value": 178, "unit": "nM"}, {"measurement": "melting point", "value": "114.5 to 115.5", "unit": "°C"}]}
{"compound": "O=C(Cc1ccccc1Cl)NCCNCC(O)COc1ccc(OCCOC2CCCC2)cc1", "note": "(stereo not drawn) [62j]", "values": [{"measurement": "Kd", "setting": "[1]", "value": 3.47, "unit": "nM"}, {"measurement": "Kd", "setting": "[3]", "value": 57.5, "unit": "nM"}, {"measurement": "melting point", "value": "113.5 to 114.5", "unit": "°C"}]}
{"compound": "O=C(Cc1cccc(Cl)c1)NCCNCC(O)COc1ccc(OCCOC2CCCC2)cc1", "note": "(stereo not drawn) [62k]", "values": [{"measurement": "Kd", "setting": "[1]", "value": 6.92, "unit": "nM"}, {"measurement": "Kd", "setting": "[3]", "value": 135, "unit": "nM"}, {"measurement": "melting point", "value": "117 to 118", "unit": "°C"}]}
{"compound": "O=C(Cc1ccc(Cl)cc1)NCCNCC(O)COc1ccc(OCCOC2CCCC2)cc1", "note": "(stereo not drawn) [62l]", "values": [{"measurement": "Kd", "setting": "[1]", "value": 7.59, "unit": "nM"}, {"measurement": "Kd", "setting": "[3]", "value": 162, "unit": "nM"}, {"measurement": "melting point", "value": "107 to 109", "unit": "°C"}]}
{"compound": "O=C(Cc1ccccc1C(F)(F)F)NCCNCC(O)COc1ccc(OCCOC2CCCC2)cc1", "note": "(stereo not drawn) [62m]", "values": [{"measurement": "Kd", "setting": "[1]", "value": 9.55, "unit": "nM"}, {"measurement": "Kd", "setting": "[3]", "value": 126, "unit": "nM"}, {"measurement": "melting point", "value": "120.5 to 121.5", "unit": "°C"}]}
{"compound": "O=C(Cc1cccc(C(F)(F)F)c1)NCCNCC(O)COc1ccc(OCCOC2CCCC2)cc1", "note": "(stereo not drawn) [62n]", "values": [{"measurement": "Kd", "setting": "[1]", "value": 13.2, "unit": "nM"}, {"measurement": "Kd", "setting": "[3]", "value": 200, "unit": "nM"}, {"measurement": "melting point", "value": "111.5 to 112.5", "unit": "°C"}]}
{"compound": "O=C(Cc1ccc(C(F)(F)F)cc1)NCCNCC(O)COc1ccc(OCCOC2CCCC2)cc1", "note": "(stereo not drawn) [62o]", "values": [{"measurement": "Kd", "setting": "[1]", "value": 9.12, "unit": "nM"}, {"measurement": "Kd", "setting": "[3]", "value": 214, "unit": "nM"}, {"measurement": "melting point", "value": "132 to 133", "unit": "°C"}]}
{"compound": "Cc1ccccc1CC(=O)NCCNCC(O)COc1ccc(OCCOC2CCCC2)cc1", "note": "(stereo not drawn) [62p]", "values": [{"measurement": "Kd", "setting": "[1]", "value": 9.55, "unit": "nM"}, {"measurement": "Kd", "setting": "[3]", "value": 72.4, "unit": "nM"}, {"measurement": "melting point", "value": "119 to 120.5", "unit": "°C"}]}
{"compound": "Cc1ccc(CC(=O)NCCNCC(O)COc2ccc(OCCOC3CCCC3)cc2)cc1", "note": "(stereo not drawn) [62r]", "values": [{"measurement": "Kd", "setting": "[1]", "value": 50.1, "unit": "nM"}, {"measurement": "Kd", "setting": "[3]", "value": 776, "unit": "nM"}, {"measurement": "melting point", "value": "82 to 85", "unit": "°C"}]}
{"compound": "COc1cccc(CC(=O)NCCNCC(O)COc2ccc(OCCOC3CCCC3)cc2)c1", "note": "(stereo not drawn) [62s]", "values": [{"measurement": "Kd", "setting": "[1]", "value": 10.7, "unit": "nM"}, {"measurement": "Kd", "setting": "[3]", "value": 53.7, "unit": "nM"}, {"measurement": "melting point", "value": "110 to 113", "unit": "°C"}]}
{"compound": "O=C(Cc1ccc(O)cc1)NCCNCC(O)COc1ccc(OCCOC2CCCC2)cc1", "note": "(stereo not drawn) [62v]", "values": [{"measurement": "Kd", "setting": "[1]", "value": 5.37, "unit": "nM"}, {"measurement": "Kd", "setting": "[3]", "value": 251, "unit": "nM"}, {"measurement": "melting point", "value": "127.5 to 130", "unit": "°C"}]}
{"compound": "N#Cc1cc(OCCOCC2CC2)ccc1OCC(O)CNCCNC(=O)Nc1ccc(O)cc1", "note": "(stereo not drawn) [LK204-545]", "values": [{"measurement": "Beta 2 Log KD", "setting": "[3]", "value": "−5.20 ± 0.03"}, {"measurement": "Beta 3 Log KD", "setting": "[2]", "value": "−4.62 ± 0.09"}]}
